Results as given in US7960173B2, “Cardiac conduction system cells and uses thereof” (Board of Supervisors of Louisiana State University and …, priority 2004, dated 2011).

System: cGATA6-minK co-positive cells
Experiment: Whole-cell patch-clamp of hyperpolarization-activated (If) current before and after cesium chloride
Assay type: cell-based, murine
Details: 10 mM cesium chloride, n=16 cells, FIG. 3(E),(F)
Experimental: On the day prior to recording, EBs were dispersed and plated onto glass coverslips coated with 0.1% gelatin. On the following day, coverslips were transferred to a recording chamber mounted on an inverted microscope (Nikon Diaphot-TMD) and superfused with extracellular recording solution. All experiments were conducted at room temperature (22-25° C.). Whole-cell voltage-clamp and current-clamp experiments were carried out using a standard Giga-seal patch-clamp method (Hamill O P et al. Pflugers Arch 391 (1981) 85). Recording electrodes were fabricated from 1.5 mm thin-walled borosilicate glass tubes (#7052. Garner Glass, Claremont, Calif.), using a Flaming-Brown microelectrode puller (P-97, Sutter Instruments, Novato, Calif.) and heat-polished before use. […] Recordings were performed using an Axoclamp 2B patch-clamp amplifier (Axon Instruments, Union City, Calif.). Data were filtered at 2 kHz, and data were acquired using Clampex 8 software (Axon Instruments). […]
In FIG. 3 (B) cGATA6-minK cells with morphologies similar to contracting atrial myocytes display atrial-like action potential waveforms (FIG. 3D). […] (F) Current-voltage relationship for hyperpolarization-activated currents measured in cGATA6-minK co-positive cells before (triangles) and after (squares) treatment with 10 mM cesium chloride. […]

[Cl-].[Cs+] [cesium chloride]
sensitivity of hyperpolarization-activated cation current (If) to cesium: cesium-sensitive
